Laboratory results from patent US12667106B2, “Stabilized mutants of quorum quenching lactonase and use thereof in treatment of pathogens” (priority 2019, dated 2026).

Key:
[1] = target: putative parathion hydrolase (PPH) from M. tuberculosis, variant PPH_R2:P8-D12, H171Y (H172Y in SEQ ID NO: 1 numbering; SEQ ID NO: 3), MBP fusion SEQ ID NO: 12 (Mycobacterium tuberculosis, UniProt P9WHN9, H168Y); format: biochemical; details: pH 8.3
[2] = target: putative parathion hydrolase (PPH) from M. tuberculosis, variant PPH_R2:P4-D5, G58V (G59V in SEQ ID NO: 1 numbering; SEQ ID NO: 2), MBP fusion SEQ ID NO: 11 (Mycobacterium tuberculosis, UniProt P9WHN9, G55V); format: biochemical; details: pH 8.3

CCCC(=O)CC(=O)N[C@H]1CCOC1=O [C6-oxo-HSL, N-(3-oxo-hexanoyl)-homoserine lactone]
kcat [1]: 10.16 ± 1.46 s⁻¹
kcat [2]: 18.66 ± 1.16 s⁻¹
